We go through twelve molecules from patent US7691836B2, “Progesterone receptor modulators” (N.V. Organon, priority 2004, dated 2010).

In assay [1] the target is T1, progesterone receptor-B (Homo sapiens, UniProt P06401).
T1 sequence (P06401 1-933): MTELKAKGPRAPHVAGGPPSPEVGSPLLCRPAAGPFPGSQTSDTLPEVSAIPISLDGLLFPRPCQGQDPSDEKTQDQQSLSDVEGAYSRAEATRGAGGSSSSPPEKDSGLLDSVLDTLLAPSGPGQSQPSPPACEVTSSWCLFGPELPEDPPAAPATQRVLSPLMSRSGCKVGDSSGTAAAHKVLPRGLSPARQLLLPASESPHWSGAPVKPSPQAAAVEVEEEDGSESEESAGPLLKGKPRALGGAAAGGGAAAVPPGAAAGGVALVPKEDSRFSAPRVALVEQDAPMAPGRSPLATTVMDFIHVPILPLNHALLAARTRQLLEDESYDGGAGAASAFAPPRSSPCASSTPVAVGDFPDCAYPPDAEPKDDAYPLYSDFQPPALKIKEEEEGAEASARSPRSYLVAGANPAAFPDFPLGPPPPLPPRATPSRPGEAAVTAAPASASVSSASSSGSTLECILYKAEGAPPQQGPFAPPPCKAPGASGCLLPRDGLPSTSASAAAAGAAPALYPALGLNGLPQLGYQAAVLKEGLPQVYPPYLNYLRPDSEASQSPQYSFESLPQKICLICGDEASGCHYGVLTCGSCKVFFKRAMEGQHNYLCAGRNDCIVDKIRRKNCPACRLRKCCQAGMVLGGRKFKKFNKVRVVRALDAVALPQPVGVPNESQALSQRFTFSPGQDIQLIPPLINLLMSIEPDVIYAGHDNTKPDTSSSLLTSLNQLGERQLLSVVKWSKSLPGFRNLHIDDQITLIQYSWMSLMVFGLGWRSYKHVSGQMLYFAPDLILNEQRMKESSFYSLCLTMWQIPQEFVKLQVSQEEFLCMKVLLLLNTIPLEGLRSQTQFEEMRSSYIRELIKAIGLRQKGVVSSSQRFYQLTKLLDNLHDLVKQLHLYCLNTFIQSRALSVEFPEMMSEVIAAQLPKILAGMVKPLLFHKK
The assay can be described thus: Progesterone receptor-B transactivation, antagonistic mode (inhibition of luciferase transactivation by inducer, CHO cells). The class given is cell-based. The conditions noted are these: for Emax: CHO, read-out: PRBant Eff (%); for EC50: in the presence of 0.1 nM inducer (16α)-16-ethyl-21-hydroxy-19-norpregn-4-ene-3,20-dione, read-out: PRBant EC50. As to the method: In the antagonistic mode, testing must result in an intrinsic activity of between about 85% and about 15% of the maximal activity when (6β,11β,17β)-11-[4-(dimethylamino)phenyl]-4′,5′-dihydro-6-methylspiro[estra-4,9-diene-17,2′(3′H)-furan]-3-one is used as a reference.
(§1) The progestagenic activity of a compound of the invention (EC50 and intrinsic agonistic activity) was determined in an in vitro bioassay of Chinese hamster ovary (CHO) cells as described by W. G. E. J. Schoonen et al. (Anal. Biochem. 261 (1998), 222-224). […] The efficacy of the antagonistic effect was expressed as the percentage of the effect produced by a standard antagonist, (6β,11β,17β)-11-[4-(dimethylamino)phenyl]-4′,5′-dihydro-6-methylspiro[estra-4,9-diene-17,2′(3′H)-furan]-3-one.
(§2) It will be recognized by those skilled in the art that, in the setting described above, the EC50 determined is more or less absolute and depends on the intrinsic property of the tested compound itself, however, the IC50 depends on the amount and agonistic EC50 of the inducer as well as on the intrinsic property of the tested compound itself. Thus, with the same amount of inducer, a relatively strong antagonist will be able to produce a measurable IC50 whereas a relatively weak antagonist may fail to produce a detectable result.

Assay [2] addresses T1, progesterone receptor-B. The assay can be described thus: Progesterone receptor-B transactivation, agonistic mode (CHO cells, luciferase). The class given is cell-based. Conditions: for EC50: CHO cells, agonistic mode, read-out: PRBagoEC50; for Emax: CHO, read-out: PRBago Eff (%).
From the text: For selecting compounds of the subject invention with a mixed modulating effect on the progesterone receptor, testing in the agonistic mode must result in an intrinsic activity of between about 15% and about 85% of the maximal activity when (16α)-16-ethyl-21-hydroxy-19-norpregn-4-ene-3,20-dione is used as a reference. Moreover, this maximal agonistic activity should be reached at a concentration of 10^−6 or less, and preferably at a concentration of 10^−8 or less.
as §1, §2

Setting [3] is: intrinsic antagonistic activity, percentage of effect of standard antagonist (6β,11β,17β)-11-[4-(dimethylamino)phenyl]-4′,5′-dihydro-6-methylspiro[estra-4,9-diene-17,2′(3′H)-furan]-3-one, 0.1 nM inducer.
[4] abbreviates: intrinsic agonistic activity, relative to reference (16α)-16-ethyl-21-hydroxy-19-norpregn-4-ene-3,20-dione.

SMILES strings stand for the structures. Counter-ions that a name gives are not always drawn. Where only a bound is given, the exact number is not on record here.

With `CC[C@@H]1C[C@H]2[C@@H]3CCC4=CC(=O)CCC4=C3[C@@H](c3ccc(-c4cccnc4)cc3)C[C@]2(C)[C@H]1C(=O)C1CC1` [Example 16, (11β,16α,17β)-17-cyclopropylcarbonyl-16-ethyl-11-[4-(3-pyridinyl)-phenyl]-estra-4,9-dien-3-one], the values for the Emax on progesterone receptor-B [1] (setting [3]) and at progesterone receptor-B [2] (setting [4]) were 53% and 34%, respectively. Also, the values for the EC50 at progesterone receptor-B [1] and at progesterone receptor-B [2] were 0.596 nM and 0.23 nM, respectively.
In the same order, the values of `CC[C@@H]1C[C@H]2[C@@H]3CCC4=CC(=O)CCC4=C3[C@@H](c3ccc(-c4ccc(OC)nc4)cc3)C[C@]2(C)[C@H]1C(=O)C1CC1` [Example 17, (11β,16α,17β)-17-cyclopropylcarbonyl-16-ethyl-11-[4-(6-methoxy-pyridin-3-yl)phenyl]-estra-4,9-dien-3-one] are 51.7%, 42%, 7.89 nM and 1.3 nM.
In the same order, the values of `C[C@]12C[C@H](c3ccc(-c4cccnc4)cc3)C3=C4CCC(=O)C=C4CC[C@H]3[C@@H]1CC[C@@H]2C(=O)C1CC1` [Example 18, (11β,17β)-17-cyclopropylcarbonyl-11-[4-(3-pyridinyl)phenyl]estra-4,9-dien-3-one] are 66%, 36%, 0.751 nM and 0.82 nM.
In the same order, the values of `COc1ccc(-c2ccc([C@H]3C[C@]4(C)[C@@H](C(=O)C5CC5)CC[C@H]4[C@@H]4CCC5=CC(=O)CCC5=C43)cc2)cn1` [Example 19, (11β,17β)-17-cyclopropylcarbonyl-11-[4-(6-methoxypyridin-3-yl)phenyl]estra-4,9-dien-3-one] are 57%, 28.3%, 0.427 nM and 0.51 nM.
As for `C[C@]12C[C@H](c3ccc(-c4cccnc4)cc3)C3=C4CCC(=O)C=C4CC[C@H]3[C@@H]1CC[C@]2(C)C(=O)C1CC1` [Example 20, (11β,17β)-17-cyclopropylcarbonyl-17-methyl-11-[4-(3-pyridinyl)-phenyl]estra-4,9-dien-3-one], the Emax is 58% on progesterone receptor-B [1] (setting [3]) and 37.5% on progesterone receptor-B [2] (setting [4]). The EC50 at progesterone receptor-B [1] is 0.13 nM; on progesterone receptor-B [2], 0.49 nM.
`C[C@]12C[C@H](c3ccc(-c4cccnc4)cc3)C3=C4CCC(=O)C=C4CC[C@H]3[C@@H]1C[C@H]1C[C@]12C(=O)C1CC1` [Example 21, (11β,16α,17β)-17-cyclopropylcarbonyl-16,17-dihydro-11-[4-(3-pyridinyl)phenyl]-3′H-cyclopropa[16,17]estra 4,9,16-trien-3-one]: the Emax at progesterone receptor-B [1] (setting [3]) was found to be 58%; at progesterone receptor-B [2] (setting [4]) it was 18%. The EC50 at progesterone receptor-B [1] was determined as 1.4 nM; at progesterone receptor-B [2] it was 2 nM.
The like results for `C[C@@H]1C[C@H]2[C@@H]3CCC4=CC(=NO)CCC4=C3[C@@H](c3ccc(-c4cccnc4)cc3)C[C@]2(C)[C@H]1C(=O)C1CC1` [Example 22, (11β,16α,17β)-17-cyclopropylcarbonyl-16-methyl-11-[4-(3-pyridinyl)-phenyl]estra-4,9-dien-3-one 3-oxime] were, in that order, 32%, 43%, 1.47 nM and 0.64 nM.
For `CC12CC(c3ccc(-c4cccnc4)cc3)C3=C4CCC(=O)C=C4CCC3C1CCC21CCCC1=O` (stereo not drawn) [Example 23, (11β)-11-[4-(3-pyridinyl)phenyl]-17,24-cyclo-19,21-dinorchola 4,9-diene-3,20-dione], the results for the Emax at progesterone receptor-B [1] (setting [3]) and at progesterone receptor-B [2] (setting [4]) were 70.8% and 17%, respectively. Besides, the EC50 worked out at 0.325 nM at progesterone receptor-B [1] and 0.29 nM on progesterone receptor-B [2].
In the same order, the values of `COc1ccc(-c2ccc([C@H]3C[C@@]4(C)[C@@H](CC[C@@]45CCCC5=O)[C@@H]4CCC5=CC(=O)CCC5=C43)cc2)cn1` [Example 24, (11β)-11-[4-(6-methoxypyridin-3-yl)phenyl]-17,24-cyclo-19,21-dinorchola 4,9-diene-3,20-dione] are 62%, 20%, 0.546 nM and 0.15 nM.
With `CC12CC(c3ccc(-c4cccnc4)cc3)C3=C4CCC(=O)C=C4CCC3C1CCC21CCCC1=O` (stereo not drawn) [Example 25, (11β)-11-[4-(3-pyridinyl)phenyl]-17,24-cyclo-19,21-dinorchola-4,9-diene-3,20-dione hydrochloride], the results for the EC50 at progesterone receptor-B [1] and on progesterone receptor-B [2] were 1.1 nM and 0.48 nM, respectively. Also, at progesterone receptor-B [1] (intrinsic antagonistic activity, percentage of effect of standard antagonist (6β,11β,17β)-11-[4-(dimethylamino)phenyl]-4′,5′-dihydro-6-methylspiro[estra-4,9-diene-17,2′(3′H)-furan]-3-one, 0.1 nM inducer, hydrochloride), the “PRBant Eff (%)” value stood at 66%. The “PRBago Eff (%)” value at progesterone receptor-B [2] (setting [4]) amounted to 17%.
Take `C[C@@H]1C[C@@H]2C(=C3CCC(=O)C=C31)[C@@H](c1ccc(-c3cccnc3)cc1)C[C@@]1(C)[C@H]2C[C@@H](C)[C@@H]1C(=O)C1CC1` [Example 26, (6β,11β,16α,17β)-17-cyclopropylcarbonyl-6,16-dimethyl-11-[4-(3-pyridinyl)-phenyl]estra-4,9-dien-3-one]: the Emax on progesterone receptor-B [1] (setting [3]) stood at 17%; at progesterone receptor-B [2] (setting [4]), 46%. Also, the EC50 stood at 2.75 nM at progesterone receptor-B [1] and 0.809 nM at progesterone receptor-B [2].
On to `C[C@@H]1C[C@H]2[C@@H]3CCC4=CC(=O)CCC4=C3[C@@H](c3ccc(-c4ncccn4)cc3)C[C@]2(C)[C@H]1C(=O)C1CC1` [Example 27, (11β,16α,17β)-17-cyclopropylcarbonyl-16-methyl-11-[4-(pyrimidin-2-yl)phenyl]estra-4,9-dien-3-one], for which the Emax at progesterone receptor-B [1] (setting [3]) was > 27%; at progesterone receptor-B [2] (setting [4]) it was 52%. Besides, the EC50 on progesterone receptor-B [1] was 3.25 nM; on progesterone receptor-B [2], 2.54 nM.
